Source: patent publication US12577417B2, “Active energy ray-curable aqueous ink, recording method and recording apparatus” (CANON KABUSHIKI KAISHA, priority 2021, dated 2026)

experiment: Water solubility of bifunctional polymerizable monomer; assay type: physicochemical; settings: mixed with ion exchanged water at 25° C.; concentration at which no insoluble matter is found by visual observation
Protocol: When a bifunctional polymerizable monomer is mixed with ion exchanged water at 25° C. and the concentration at which no insoluble matter is found as a result of visual observation of the resulting mixture is shown as water solubility. Higher water solubility is preferred and the evaluation criteria is as follows.
A: no insoluble matter is found at 20% by mass
B: no insoluble matter is found at 5% by mass
C: no insoluble matter is found at 1% by mass
D: an insoluble matter is found at 1% by mass

Question: Which Water solubility does the source give for C=CC(=O)NCCC(=O)NCCOCCOCCNC(=O)CCNC(=O)C=C [Curable substance 1] here?
Answer: Its Water solubility is “A (no insoluble matter is found at 20% by mass)”.

Question: For C=CC(=O)NCCCCCC(=O)NCCOCCOCCNC(=O)CCCCCNC(=O)C=C [Curable substance 2], which Water solubility is on record?
Answer: The Water solubility was “C (no insoluble matter is found at 1% by mass)”.

Question: With C=CC(=O)NCCCCCC(=O)NCCNC(=O)CCCCCNC(=O)C=C [Curable substance 12] as the compound, how does the Water solubility read?
Answer: The Water solubility was “C (no insoluble matter is found at 1% by mass)”.

Question: Which Water solubility does the source give for C=CC(=O)NCCOCCOCCNC(=O)C=C [Comparative compound 2, reference compound] here?
Answer: Its Water solubility is “A (no insoluble matter is found at 20% by mass)”.

Question: For C=CC(=O)NCCC(=O)NCCCNC(=O)CCNC(=O)C=C [Curable substance 3], which Water solubility is on record?
Answer: Its Water solubility is “B (no insoluble matter is found at 5% by mass)”.

Question: With C=CC(=O)NCCCOCCOCCOCCCN(O)C(=O)C=C [Comparative compound 1, reference compound] as the compound, how does the Water solubility read?
Answer: Its Water solubility is “A (no insoluble matter is found at 20% by mass)”.

Question: For C=CC(=O)NCCCC(=O)NCCCNC(=O)CCCNC(=O)C=C [Curable substance 4], which Water solubility is on record?
Answer: Its Water solubility is “B (no insoluble matter is found at 5% by mass)”.
